Values quoted from earlier work as cited in patent publication US20110015154A1, “SUPPORTING ACETYLCHOLINE FUNCTION” (priority 2009, published 2011).

Assays:
[1] = supplementation
[2] = system: nuclear factor-kappa B (NFκB); conditions: after 14 days of administration
[3] = system: cells; conditions: against hydrogen peroxide, beta-amyloid protein, glutamate, ischemia, staurosporine-induced cytotoxicity, and apoptosis
[4] = system: M1 receptors; conditions: adult rats
[5] = system: M2 receptors; conditions: adult rats
[6] = in vivo

CC(=O)O[C@H](CC(=O)[O-])C[N+](C)(C)C [acetyl-L-carnitine]
pain in patients with diabetic peripheral neuropathy [1]: reduce pain

C/C=C1\[C@H]2C=C(C)C[C@]1(N)c1ccc(=O)[nH]c1C2 [huperzine A, Huperzine A]
activation of glial cells in an ischemic event [2]: reduced | nuclear translocation of transcription factor NFκB [2]: inhibited | overexpression of pro-inflammatory mediators in an immune challenge [2]: decreased | cell protection [3]: protects cells

C[N+](C)(C)CCOP(=O)([O-])OC[C@H](O)CO [α-GPC, Alpha-glycerylphosphorylcholine]
effect on M1 receptors [4]: countered the loss of M1 receptors | effect on M2 receptors [5]: no effect | blood-brain barrier passage [6]: can cross the blood-brain barrier | metabolism [6]: rapidly metabolized into choline and glycerophosphate
